Source: patent US11530213B2, “Naphthyridinone derivatives and their use in the treatment of arrhythmia” (NOVARTIS AG, priority 2016, dated 2022)
pIC50: −log10 of the molar value.

Biological target: GIRK1/4 (Homo sapiens (Human), UniProt P48544+P48549)
Experiment: GIRK1/4 inhibition, Quattro (IonWorks) population patch clamp, inward potassium current in GIRK 1/4 HEK293 stable cells (test assay No. 1)
Type: cell-based
Details: percentage of current inhibition normalized to DMSO-only control
Experimental: The activity of a compound according to the present invention can be assessed by the following in vitro method. • 1. Buffers: • a. External buffer: 10 mM NaCl, 50 mM Na Gluconate, 80 mM K Gluconate, 1.8 mM CaCl2, 1 mM MgCl2, 10 mM HEPES, 10 mM Glucose, pH 7.4; osmolality […]. • b. Internal buffer: 30 mM KCl, 100 mM K Gluconate, 1 mM MgCl2, 10 mM HEPES, 1 mM EGTA, 10 mM NaCl, pH 7.2; osmolality […]. • 2. Compounds: • a. Prepare seven-fold compound dilution series (10 mM to 20 uM) in 100% DMSO, in 384-well polypropylene plates. • b. Propafenone (Sigma Aldrich, catalog number P4670) is used as a positive control and DMSO for neutral control • c. Resuspend 1 ul of compounds in DMSO into 65.7 ul external buffer in 384-well polypropylene plate and load into Plate 1 section of Molecular Devices Quattro • 3. Quattro setup: • a. Load 384-well Population Patch Plate (Molecular Devices #9000-0902) into Quattro • b. Fill Quattro F-soak trough with 20% DMSO and 50% EtOH • c. Fill Quattro buffer trough with external buffer • d. Attach internal buffer flask to Quattro internal buffer tubing • e. Attach PBS (Phosphate Buffered Saline, minus Ca^++ and Mg^++, pH7.4) bottle to F-head & E-head wash on Quattro • 4. Antibiotic: • a. Resuspend 5.6 mg amphotericin B (Sigma Aldrich, catalog number A2411) in 175 ul DMSO • b. Add the resulting solution to 50 ml internal buffer, mix and attach to antibiotic tubing port on Quattro • 5. Cells: • a. Use GIRK 1/4 HEK293 stable cells (obtained from ChanTest, 14656 Neo Parkway, Cleveland, Ohio 44128) grown to […] confluency in the following cell culture medium: DMEM containing 10% (v/v) Fetal Bovine Serum, Penicillin/Streptomycin (at “1×” concentration from a 100× stock), 0.5 mg/ml G418 and 0.1 mg/ml Zeocin. • b. Wash cells with PBS (minus Ca^++ and Mg^++), Detach cells using Detachin (Genlantis, 11011 Torreyana, San Diego, Calif. 92121), and resuspend in external buffer (5 ml final volume at 2.0-2.1×10^6 cells/ml) • c. Load into cell trough of Quattro • 6. Assay Protocol: • Quattro is controlled using IonWorks v2 software to perform the following steps: • a. Add 3.5 ul cells plus 3.5 ul external buffer to wells of Quattro Patch Plate • b. Circulate amphotericin B and internal buffer onto cells • c. Apply the following voltage protocol: Pulse 1: 15 mV for 300 milliseconds (ms), followed by Pulse 2: −120 mV for 400 ms, then Pulse 3: −15 mV for 400 ms, and finally Pulse 4: −120 mV to 40 mV over 500 ms (this is a voltage ramp). • d. Measure magnitude of inward potassium current at time point between 1200-1220 ms from start of Pulse 1 (i.e. during the voltage ramp phase). • e. Add 3.5 ul of diluted compounds (or DMSO) to wells and repeat steps c-d (final compound concentrations are 50 uM to 0.1 uM, for potent compounds 0.5 uM to 0.01 uM and each concentration is tested in quadruplicate—i.e. in 4 separate wells). • f. The difference between current magnitude pre vs. post-compound gives a measure of GIRK1/4 inhibition. • 7. Data analysis:
IC50 values are calculated by plotting the percentage of current inhibition (normalized to the DMSO-only control) as a function of compound concentration using standard data analysis software.

Sequence of GIRK1/4 (P48549 whole entry): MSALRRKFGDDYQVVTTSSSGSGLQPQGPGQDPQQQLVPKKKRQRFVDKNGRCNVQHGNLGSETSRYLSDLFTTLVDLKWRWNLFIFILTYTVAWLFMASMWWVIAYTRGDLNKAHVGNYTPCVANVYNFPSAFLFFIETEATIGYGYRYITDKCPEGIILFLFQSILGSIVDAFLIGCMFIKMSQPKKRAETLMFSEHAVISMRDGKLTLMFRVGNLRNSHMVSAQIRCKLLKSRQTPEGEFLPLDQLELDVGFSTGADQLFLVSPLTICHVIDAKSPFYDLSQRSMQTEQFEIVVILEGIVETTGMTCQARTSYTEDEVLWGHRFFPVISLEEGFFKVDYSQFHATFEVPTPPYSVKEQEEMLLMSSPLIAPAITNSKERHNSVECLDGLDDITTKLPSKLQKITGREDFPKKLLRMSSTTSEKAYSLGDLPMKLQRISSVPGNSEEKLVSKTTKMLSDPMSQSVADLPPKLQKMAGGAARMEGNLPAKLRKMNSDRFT
Sequence of GIRK1/4 (P48544 whole entry): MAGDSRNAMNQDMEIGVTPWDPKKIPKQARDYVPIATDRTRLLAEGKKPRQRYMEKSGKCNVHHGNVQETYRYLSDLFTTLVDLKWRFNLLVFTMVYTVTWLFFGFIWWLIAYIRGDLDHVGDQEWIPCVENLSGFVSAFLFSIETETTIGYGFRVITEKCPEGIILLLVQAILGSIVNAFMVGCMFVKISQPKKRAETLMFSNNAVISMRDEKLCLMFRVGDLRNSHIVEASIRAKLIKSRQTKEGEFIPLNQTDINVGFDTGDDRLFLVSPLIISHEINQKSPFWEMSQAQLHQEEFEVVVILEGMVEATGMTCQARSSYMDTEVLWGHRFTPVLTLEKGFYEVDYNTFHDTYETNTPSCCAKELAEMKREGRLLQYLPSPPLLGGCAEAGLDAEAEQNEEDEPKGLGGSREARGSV

Row | SMILES | pIC50
1 | O=c1cc(CO)n(-c2c(Cl)cccc2Cl)c2c(Cl)cnc(C(O)CO)c12 (single isomer, unassigned) [Example 83, 8-Chloro-1-(2,6-dichlorophenyl)-5-(1,2-dihydroxyethyl)-2-(hydroxymethyl)-1,6-naphthyridin-4(1H)-one] | 6.56
2 | Cc1cc(=O)c2c(N3CC(O)C3)cncc2n1-c1c(Cl)cc(C#N)cc1Cl [Example 29, 3,5-dichloro-4-(5-(3-hydroxyazetidin-1-yl)-2-methyl-4-oxo-1,7-naphthyridin-1(4H)-yl)benzonitrile] | 6.30
3 | O=c1cc(CO)n(-c2c(Cl)cccc2Cl)c2c(Cl)cnc(COCC(O)CO)c12 (centres unmarked) [Example 87, 8-Chloro-1-(2,6-dichlorophenyl)-5-((2,3-dihydroxypropoxy)methyl)-2-(hydroxymethyl)-1,6-naphthyridin-4(1H)-one] | 5.64
4 | CC(C)(O)C(O)COc1ncc(Cl)c2c1c(=O)cc(CO)n2-c1c(Cl)cccc1Cl (centres unmarked) [Example 4, 8-chloro-1-(2,6-dichlorophenyl)-5-(2,3-dihydroxy-3-methylbutoxy)-2-(hydroxymethyl)-1,6-naphthyridin-4(1H)-one] | 6.85
5 | O=c1cc(CO)n(-c2c(Cl)cccc2Cl)c2c(Cl)cnc(CCC(O)CO)c12 (single isomer, unassigned) [Example 77, 8-chloro-1-(2,6-dichlorophenyl)-5-(3,4-dihydroxybutyl)-2-(hydroxymethyl)-1,6-naphthyridin-4(1H)-one] | 6.44
6 | Cc1cc(=O)c2c(OCC(O)CO)ncc(Cl)c2n1-c1c(Cl)cc(C#CC(C)(C)N)cc1Cl (centres unmarked) [Example 90, 1-(4-(3-Amino-3-methylbut-1-yn-1-yl)-2,6-dichlorophenyl)-8-chloro-5-(2,3-dihydroxypropoxy)-2-methyl-1,6-naphthyridin-4(1H)-one] | 6.49
7 | O=c1cc(CO)n(-c2c(Cl)cccc2Cl)c2c(Cl)cnc(CC(O)CO)c12 (centres unmarked) [Example 78, 8-Chloro-1-(2,6-dichlorophenyl)-5-(2,3-dihydroxypropyl)-2-(hydroxymethyl)-1,6-naphthyridin-4(1H)-one] | 6.45
8 | Cc1cc(=O)c2c(OCC(O)CO)cncc2n1-c1c(Cl)cc(C#N)cc1Cl (centres unmarked) [Example 18, 3,5-dichloro-4-(5-(2,3-dihydroxypropoxy)-2-methyl-4-oxo-1,7-naphthyridin-1(4H)-yl)benzonitrile] | 5.73
9 | Cc1cc(=O)c2c(-c3cnn(C)c3)cncc2n1-c1c(Cl)cc(C#N)cc1Cl [Example 73, 3,5-Dichloro-4-(2-methyl-5-(1-methyl-1H-pyrazol-4-yl)-4-oxo-1,7-naphthyridin-1(4H)-yl)benzonitrile] | 6.48
10 | O=c1cc(CO)n(-c2c(Cl)cccc2Cl)c2c(Cl)cnc(CC(O)CO)c12 (single isomer, unassigned) [Example 79, 8-Chloro-1-(2,6-dichlorophenyl)-5-(2,3-dihydroxypropyl)-2-(hydroxymethyl)-1,6-naphthyridin-4(1H)-one] | 6.52
11 | Cc1cc(=O)c2c(OCC(O)C(C)(C)O)ncc(Cl)c2n1-c1c(Cl)cccc1Cl (centres unmarked) [Example 40, 8-chloro-1-(2,6-chlorophenyl)-5-(2,3-dihydroxy-3-methylbutoxy)-2-methyl-1,6-naphthyridin-4(1H)-one] | 7.89
12 | O=c1cc(CO)n(-c2c(Cl)cccc2Cl)c2c(Cl)cnc(OCCOCCOCCOCCO)c12 [Example 7, 8-chloro-1-(2,6-dichlorophenyl)-5-(2-(2-(2-(2-hydroxyethoxy)ethoxy)ethoxy)ethoxy)-2-(hydroxymethyl)-1,6-naphthyridin-4(1H)-one] | 6.37
13 | O=c1cc(CO)n(-c2c(Cl)cccc2Cl)c2c(Cl)cnc(CCC(O)CO)c12 (single isomer, unassigned) [Example 76, 8-chloro-1-(2,6-dichlorophenyl)-5-(3,4-dihydroxybutyl)-2-(hydroxymethyl)-1,6-naphthyridin-4(1H)-one] | 6.45

The remaining compounds from weak to strong by pIC50, led by results:

Row | pIC50 | SMILES
14 | 6.59 | O=c1cc(CO)n(-c2c(Cl)cccc2Cl)c2c(Cl)cnc(OC(CO)CO)c12 [Example 9, 8-chloro-1-(2,6-dichlorophenyl)-5-((1,3-dihydroxypropan-2-yl)oxy)-2-(hydroxymethyl)-1,6-naphthyridin-4(1H)-one]
15 | 6.60 | Cc1cc(=O)c2c(OCCOCCOCCOCCOCCOCCO)ncc(Cl)c2n1-c1c(Cl)cc(F)cc1Cl [Example 24, 8-chloro-1-(2,6-dichloro-4-fluorophenyl)-5-((17-hydroxy-3,6,9,12,15-pentaoxaheptadecyl)oxy)-2-methyl-1,6-naphthyridin-4(1H)-one]
16 | 6.62 | Cc1cc(=O)c2c(OCC(O)CO)ncc(Cl)c2n1-c1c(Cl)cccc1C#N (centres unmarked) [Example 34, 3-chloro-2-(8-chloro-5-(2,3-dihydroxypropoxy)-2-methyl-4-oxo-1,6-naphthyridin-1(4H)-yl)benzonitrile]
17 | 6.63 | O=c1cc(CO)n(-c2c(Cl)cccc2Cl)c2c(Cl)cnc(OCC3(CO)COC3)c12 [Example 5, 8-chloro-1-(2,6-dichlorophenyl)-2-(hydroxymethyl)-5-((3-(hydroxymethyl)oxetan-3-yl)methoxy)-1,6-naphthyridin-4(1H)-one]
18 | 6.89 | Cc1cc(=O)c2c(Oc3nnnn3C)ncc(Cl)c2n1-c1c(Cl)cccc1Cl [Example 46, 8-chloro-1-(2,6-dichlorophenyl)-2-methyl-5-((1-methyl-1H-tetrazol-5-yl)oxy)-1,6-naphthyridin-4(1H)-one]
19 | 6.94 | CCc1cnc(OCC(O)CO)c2c(=O)cc(C)n(-c3c(Cl)cccc3Cl)c12 (centres unmarked) [Example 69, 1-(2,6-Dichlorophenyl)-5-(2,3-dihydroxpropoxy)-8-ethyl-2-methyl-1,6-naphthyridin-4(1H)-one]
20 | 7.14 | COCCOCCOc1ncc(Cl)c2c1c(=O)cc(CO)n2-c1c(Cl)cccc1Cl [Example 11, 8-chloro-1-(2,6-dichlorophenyl)-2-(hydroxymethyl)-5-(2-(2-methoxyethoxy)ethoxy)-1,6-naphthyridin-4(1H)-one]
21 | 7.38 | Cc1cc(=O)c2c(NOCCO)ncc(Cl)c2n1-c1c(Cl)cccc1Cl [Example 49, 8-chloro-1-(2,6-dichlorophenyl)-5-((2-hydroxyethoxy)amino)-2-methyl-1,6-naphthyridin-4(1H)-one]
22 | 7.55 | Cc1cc(=O)c2c(OCC(C)(CO)CO)ncc(Cl)c2n1-c1c(Cl)cccc1Cl [Example 41, 8-chloro-1-(2,6-dichlorophenyl)-5-(3-hydroxy-2-(hydroxymethyl)-2-methylpropoxy)-2-methyl-1,6-naphthyridin-4(1H)-one]
23 | 7.60 | COCCOCCOCCOCCOCCOCCOc1ncc(Cl)c2c1c(=O)cc(C)n2-c1c(Cl)cccc1Cl [Example 15, 5-(2,5,8,11,14,17-hexaoxanonadecan-19-yloxy)-8-chloro-1-(2,6-dichlorophenyl)-2-methyl-1,6-naphthyridin-4(1H)-one]
24 | 7.80 | N#Cc1cc(=O)c2c(OCC(O)CO)ncc(Cl)c2n1-c1c(Cl)cccc1Cl (centres unmarked) [Example 63, 8-Chloro-1-(2,6-dichlorophenyl)-5-(2,3-dihydroxpropoxy)-4-oxo-1,4-dihydro-1,6-naphthyridine-2-carbonitrile]
25 | 7.96 | Cc1cc(=O)c2c(OCC3COC3)ncc(Cl)c2n1-c1c(Cl)cccc1Cl [Example 50, 8-chloro-1-(2,6-dichlorophenyl)-2-methyl-5-(oxetan-3-ylmethoxy)-1,6-naphthyridin-4(1H)-one]
26 | 8.05 | Cc1cc(=O)c2c(OCCNS(C)(=O)=O)ncc(Cl)c2n1-c1c(Cl)cccc1Cl [Example 36, N-(2-((8-chloro-1-(2,6-dichlorophenyl)-2-methyl-4-oxo-1,4-dihydro-1,6-naphthyridin-5-yl)oxy)ethyl)methanesulfonamide]
